The test has as its target T1, DRD3 (Homo sapiens, UniProt P35462).
T1 construct: purchased Promega (in-house HiBiT-GPCR construct library, NanoBRET)
The test is described as follows: NanoBRET screen HiBiT-DRD3 in HEK293. In kind it is binding. Here is the method: Each tracer candidate was screened across the entire library of HiBiT-GPCR constructs using NanoBRET as the detection modality. As depicted in Figure 4A, the specificity of interactions was evaluated through decrease in BRET due to competitive displacement of a bound tracer by excess parental compound. Each tracer was analyzed for binding to each HiBiT-GPCR fusion in the absence and in the presence of competing parental compound. Briefly, HEK293 cells were transfected with HiBiT-GPCR constructs diluted into promoterless DNA to reduce expression and maximize translocation to the cell surface. Each tracer candidate was then screened at concentrations of 1 μM and 0.1 μM across cells expressing these fusions. Cells were treated for 1.5 h with tracer either alone or in the presence of 20 μM competing parental compound (i.e., control). BRET was measured upon addition of purified LgBiT and subsequent complementation with HiBiT genetically fused to a GPCR. The specificity of interactions was assessed through a decrease in BRET signal due to competitive displacement of the bound tracer. To further gauge the robustness of these interactions, the fold response over the control (i.e., BRETtracer/BRETcontrol) was calculated. We chose a 1.5-fold response, which translates to ≥7-fold signal over noise as the minimal threshold required to score an interaction as positive.
HiBiT-GPCR DNA constructs were diluted in 10 mM Tris pH 8 to a final concentration of 0.01 μg/μL, arrayed in 96-well plates and stored at −20 °C. For transfection, HEK293 cells were suspended in Opti-MEM (without phenol red) supplemented with 2% fetal bovine serum (Seradigm) and 100 units/mL penicillin–streptomycin (Gibco) at a final concentration of 220,000 cells/mL and dispensed into white 96-well plates at 90 μL/well. Subsequent transfections and screens were carried using an Agilent Bravo Automated Liquid Handling Platform. First, the 96-well HiBiT DNA arrays were diluted 25-fold in Opti-MEM (without serum or phenol red) to a final concentration of 0.0004 μg/μL and 20 μL of the diluted DNAs were transferred into new 96-well plates. Next, promoterless carrier DNA (1 μg/μL) was diluted 25-fold (0.04 μg/μL) and then dispensed into the diluted arrays at 20 μL/well. Following brief mixing, Viafect transfection reagent (Promega) diluted 16-fold into Opti-MEM was dispensed into the plates at 40 μL/well. After mixing by pipetting, plates were incubated for 10 min on the pipetting station deck. The DNA-transfection reagent complexes were then added to plates containing cells. To facilitate the screen, 10 μL of DNA-transfection reagent complexes were added in duplicates to the top 4 and bottom 4 rows, resulting in two identical 48-well arrays per plate. Plates with transfected cells were incubated for 18–20 h at 37 °C/5% CO2. A screen of each tracer across the entire library using two different concentrations requires duplicate plates of transfected cells. Depending on the number of tracers being screened, transfections can be scaled up using the same ratios. The next day, for each tracer, four 20× screening solutions in tracer dilution buffer (Promega) were prepared: two duplicates at final concentration of 20 μM and two duplicates at a final concentration of 2 μM. […] The four resulting solutions were diluted 4-fold in Opti-MEM without serum or phenol red to generate 5× solutions (5 µM and 0.5 µM tracer +/− 100 μM competing compound). To screen the library, a BioTek MultiFlo FX liquid dispenser was used to dispense 22.5 µL of tracer solution to the top 4 rows and 22.5 µL tracer + competing compound solution to the 4 bottom rows. Plates were briefly mixed on an orbital shaker and incubated for 1.5 h at room temperature. […] Plates were briefly mixed on an orbital shaker and incubated for 15 min to allow complementation.

Results on 20 molecules are retold here after paper PMC8151276, “An Integrated Approach toward NanoBRET Tracers for Analysis of GPCR Ligand Engagement” (Molecules, 2021).

T1 sequence (P35462 whole entry): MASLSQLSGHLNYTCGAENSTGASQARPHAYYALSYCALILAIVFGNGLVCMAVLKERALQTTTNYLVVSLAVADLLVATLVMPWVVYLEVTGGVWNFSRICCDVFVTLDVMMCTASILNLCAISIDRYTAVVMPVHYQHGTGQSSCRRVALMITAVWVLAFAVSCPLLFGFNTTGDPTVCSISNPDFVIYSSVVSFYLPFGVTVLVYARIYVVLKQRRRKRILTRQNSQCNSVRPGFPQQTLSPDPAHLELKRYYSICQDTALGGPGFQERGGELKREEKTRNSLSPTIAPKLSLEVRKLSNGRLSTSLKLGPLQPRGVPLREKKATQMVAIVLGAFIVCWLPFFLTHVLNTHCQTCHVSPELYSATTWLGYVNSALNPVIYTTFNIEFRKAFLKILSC

In the case of `O=C(CCc1ccc2n1[B-](F)(F)[N+]1=C(c3ccc[nH]3)C=CC1=C2)NCc1ccc(C(=O)NCCOCCC(=O)N[C@@H]2CC[C@@]3(O)[C@H]4Cc5ccc(O)c6c5[C@@]3(CCN4CC3CC3)[C@H]2O6)cc1` [Naltrexone-3-NB590], the “NanoBRET Fold Response” value is, setting by setting: (DRD3, tracer 0.1μM) 0.79; (DRD3, tracer 1μM) 1.37.

Regarding `CN1CCN(C2=Nc3cc(Cl)ccc3N(CC(=O)NCCOCCOCCOCCOCCNC(=O)CCc3ccc4n3[B-](F)(F)[N+]3=C(c5ccc[nH]5)C=CC3=C4)c3ccccc32)CC1` [Clozapine-c-2-NB590], the “NanoBRET Fold Response” value reads like this: (DRD3, 0.1μM tracer) 0.96; (DRD3, 1μM tracer) 0.76.

As for `O=C(CCOCCOCCOCCOCCNC(=O)CCc1ccc2n1[B-](F)(F)[N+]1=C(c3ccc[nH]3)C=CC1=C2)NCCCN1CCN(C2=Nc3cc(Cl)ccc3Nc3ccccc32)CC1` [Clozapine-a-2-NB590], the “NanoBRET Fold Response” value came to 2.22 (DRD3, 0.1μM tracer) and 2.49 (DRD3, 1μM tracer).

`CCOC(=O)c1cc(C#N)c(N2CCC(C(=O)NS(=O)(=O)Cc3ccccc3/C=C/C(=O)NCCNC(=O)CCc3ccc4n3[B-](F)(F)[N+]3=C(c5ccc[nH]5)C=CC3=C4)CC2)nc1C` [AZD1283-1-NB590]: the “NanoBRET Fold Response” value turned out to be 0.99 (DRD3, 0.1μM) and 1.01 (DRD3, 1μM).

As to `COc1ccc2[nH]c(-c3ccc(CNC(=O)CCOCCOCCOCCOCCNC(=O)CCc4ccc5n4[B-](F)(F)[N+]4=C(c6ccc[nH]6)C=CC4=C5)cc3)c(CCNC(C)=O)c2n1` [AzomelatoninICO9-2-NB590], the “NanoBRET Fold Response” value is listed as 0.93 (0.1μM tracer) and 1.05 (1μM tracer).

For the molecule `CCCn1c(=O)c2[nH]c(-c3ccc(OCC(=O)NCCNC(=O)CCOCCNC(=O)c4ccc(CNC(=O)CCc5ccc6n5[B-](F)(F)[N+]5=C(c7ccc[nH]7)C=CC5=C6)cc4)cc3)nc2n(CCC)c1=O` [XAC-3-NB590], the “NanoBRET Fold Response” value was found to be 1.23 (DRD3, tracer 0.1μM) and 0.81 (DRD3, tracer 1μM).

Regarding `COc1ccccc1N1CCN(CCCCN2C(=O)c3ccc(CNC(=O)CCOCCNC(=O)c4ccc(CNC(=O)CCc5ccc6n5[B-](F)(F)[N+]5=C(c7ccc[nH]7)C=CC5=C6)cc4)cc3C2=O)CC1` [NAN-190-3-NB590], the “NanoBRET Fold Response” value reads like this: (DRD3, tracer 0.1μM) 2.25; (DRD3, tracer 1μM) 1.52.

Consider `CN(CCC=C1c2ccccc2CCc2ccccc21)C(=O)CCOCCOCCOCCOCCNC(=O)CCc1ccc2n1[B-](F)(F)[N+]1=C(c3ccc[nH]3)C=CC1=C2` [Amitriptyline-e-2-NB590], for which the “NanoBRET Fold Response” value (tracer at 1μM) was found to be 1.24.

For `O=C(CCc1ccc2n1[B-](F)(F)[N+]1=C(c3ccc[nH]3)C=CC1=C2)NCc1ccc(C(=O)NCCOCCOCCNCC(O)COc2cccc3ccccc23)cc1` (stereo not drawn) [Propranolol-3-NB590], the “NanoBRET Fold Response” value reads like this: (DRD3, 0.1μM) 1.05; (DRD3, 1μM) 1.30.

As for `COc1ccc2c(n1)c(CCNC(C)=O)cn2CCNC(=O)CCc1ccc2n1[B-](F)(F)[N+]1=C(c3ccc[nH]3)C=CC1=C2` [Azamelatonin-1-NB590], the “NanoBRET Fold Response” value turned out to be 1.14 (0.1μM tracer) and 1.27 (1μM tracer).

`N#CN/C(=N\CCNC(=O)c1ccc(N)cc1)NCCCOc1cccc(CN2CCCCC2)c1` [Aminopotentidine (unmodified)]: the “NanoBRET Fold Response” value is listed as 1.16 (DRD3, other tracers/Aminopotentidine (unmodified), 0.1μM) and 1.64 (DRD3, other tracers/Aminopotentidine (unmodified), 1μM).

Take `COc1ccccc1N1CCN(CCCCN2C(=O)c3ccc(CNC(=O)CCOCCOCCOCCOCCNC(=O)CCc4ccc5n4[B-](F)(F)[N+]4=C(c6ccc[nH]6)C=CC4=C5)cc3C2=O)CC1` [NAN-190-2-NB590]: the “NanoBRET Fold Response” value is, setting by setting: (DRD3, tracer 0.1μM) 2.36; (DRD3, tracer 1μM) 1.69.

On to `CC(C)N(CC[C@H](c1ccccc1)c1cc(CCNC(=O)c2ccc(CNC(=O)CCc3ccc4n3[B-](F)(F)[N+]3=C(c5ccc[nH]5)C=CC3=C4)cc2)ccc1O)C(C)C` [Tolterodine-BZ-NB590], for which the “NanoBRET Fold Response” value is, setting by setting: (DRD3, tracer 0.1μM) 0.91; (DRD3, tracer 1μM) 1.25.

In the case of `O=C(CCc1ccc2n1[B-](F)(F)[N+]1=C(c3ccc[nH]3)C=CC1=C2)NCCOCCOCCNC(=O)OCCOCCN1CCN(C2=Nc3ccccc3Sc3ccccc32)CC1` [Quetiapine-a-2-NB590], the “NanoBRET Fold Response” value reads like this: (DRD3, tracer 0.1μM) 1.56; (DRD3, tracer 1μM) 1.98.

Regarding `CN1CCN(C2=Nc3cc(Cl)ccc3Nc3ccc(CNC(=O)CCOCCOCCOCCOCCNC(=O)CCc4ccc5n4[B-](F)(F)[N+]4=C(c6ccc[nH]6)C=CC4=C5)cc32)CC1` [Clozapine-b-2-NB590], the “NanoBRET Fold Response” value by setting is: (DRD3, 0.1μM tracer) 1.54; (DRD3, 1μM tracer) 2.63.

Take `CC(C)N(CC[C@H](c1ccccc1)c1cc(CCNC(=O)CCOCCOCCOCCOCCNC(=O)CCc2ccc3n2[B-](F)(F)[N+]2=C(c4ccc[nH]4)C=CC2=C3)ccc1O)C(C)C` [Tolterodine-2-NB590]: the “NanoBRET Fold Response” value is, setting by setting: (DRD3, tracer 0.1μM) 0.97; (DRD3, tracer 1μM) 0.98.

With `CN(C)CCC=C1c2ccccc2CCc2ccc(C(=O)NCCNC(=O)CCOCCOCCOCCOCCNC(=O)CCc3ccc4n3[B-](F)(F)[N+]3=C(c5ccc[nH]5)C=CC3=C4)cc21` [Amitriptyline-a-2-NB590], the “NanoBRET Fold Response” value reads like this: (tracer at 0.1μM) 1.13; (tracer at 1μM) 1.37.

For `Cc1cc2c(s1)Nc1ccccc1N=C2N1CCN(CCCNC(=O)CCOCCOCCOCCOCCNC(=O)CCc2ccc3n2[B-](F)(F)[N+]2=C(c4ccc[nH]4)C=CC2=C3)CC1` [Olanzapine-a-2-NB590], the “NanoBRET Fold Response” value is, setting by setting: (DRD3, tracer 0.1μM) 1.74; (DRD3, tracer 1μM) 2.07.

Regarding `N#CN=C(NCCCOc1cccc(CN2CCCCC2)c1)NCCNC(=O)CCOCCOCCOCCOCCNC(=O)CCc1ccc2n1[B-](F)(F)[N+]1=C(c3ccc[nH]3)C=CC1=C2` [Aminopotentidine-2-NB590], the “NanoBRET Fold Response” value reads like this: (DRD3, tracer 0.1μM) 1.25; (DRD3, tracer 1μM) 1.17.

With `CN(C)CCC=C1c2ccccc2CCc2ccc(C(=O)NCCNC(=O)CCOCCOCCOCCOCCNC(=O)CCc3ccc4n3[B-](F)(F)[N+]3=C(c5ccc[nH]5)C=CC3=C4)cc21` [Amitriptyline-b-2-NB590], the “NanoBRET Fold Response” value (tracer at 0.1μM, listed as amitriptyline-b-2-NB590) was found to be 1.68 and the “NanoBRET Fold Response” value (tracer at 1μM, listed as amitriptyline-b-2-NB590) is 1.25.
